Measured values: patent US12024506B2, “Compounds” (Oxford University Innovation Limited, priority 2018, dated 2024)
“Also recorded” adds a separate entry of the source.

How the values were obtained:
[1] = target: T1, GST-human KRas166 (G12V) GPPNHP (Homo sapiens, UniProt P01116, G12V); assay: KRas small-molecule screening by SPR (Biacore T200); type: binding; settings: compound 100 uM, 5% DMSO buffer; immobilised GST-KRas166 (G12V) GPPNHP
T1 construct: made in house; host or cells: E. coli C41(DE3)
Procedure, shortened: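 GST-KRas166 G12V loaded with GPPNHP, captured on anti-GST CM5 chip at 10,000–15,000 RU, GST reference channel. Compounds run at 100 uM in buffer with 100 mM NaCl, 5 mM MgCl2, 5% DMSO, with DMSO solvent correction; Rmax for 1:1 binding taken as 63 RU.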

[2] = target: T2, KRASG12D interaction with PI3Kα, PI3Kγ, CRAF RBD, RALGDS RA (Homo sapiens, UniProt P01116, G12D); assay: BRET2 cell assay, KRAS G12D-effector interaction; type: cell-based; settings: HEK293T cells, 5, 10 and 20 μM, 20 h
T2 construct: expressed in transfected cells; host or cells: HEK293T
Source text: The BRET ratio corresponds to the light emitted by the GFP2 acceptor constructs (515 nm±30) upon addition of Coelenterazine 400a divided by the light emitted by the RLuc8 donor constructs (410 nm±80). The normalized BRET ratio is the BRET ratio normalized to the DMSO negative and calculated as follows: (BRETcompound/BRETDMSO)×100, where BRETcompound corresponds to the BRET ratio for the compound-treated cells, BRETDMSO to the DMSO-treated cells. Each experiment was repeated at least three times. Statistical analyses were performed using a one-way ANOVA followed by Dunnett's post-tests (*P<0.05, **P<0.01, ***P<0.001, ****P<0.0001). Where error bars are presented, they correspond to mean values±SD of biological repeats (a-c).
650,000 HEK293T were seeded in each well of a 6 well plate. 24 hours later, cells were transfected with an appropriated BRET-based RAS biosensor (i.e. RAS-effector) using Lipofectamine 2000 transfection reagent (Thermo-Fisher). […] The final concentrations in the cells were 0, 5, 10 and 20 µM (therefore the intermediate 10× concentrations were 0, 50, 100 and 200 μM. 10 μL of 10× compounds were added in each well of the 96 well plate to 0, 5, 10 and 20 µM final concentrations (with final 0.2% DMSO each). Quadruplicates were performed for each point. Cells were left for an additional 20 hours at 37° C. before the BRET2 signal reading directly after addition of Coelenterazine 400a substrate (10 µM final) to cells (Cayman Chemicals, cat #16157). BRET2 reading was carried out on an Envision instrument (2103 Multilabel Reader, PerkinElmer) with the BRET2 Dual Emission optical module (515 nm±30 and 410 nm±80; PerkinElmer).
The ability of Example compound 56 to inhibit RAS-effector PPI using the above cell-based RAS-effector BRET2 assay was investigated. […] We determined the effect of compound 56 (labelled Abd-7) on the interaction of KRAS^G12D and with PI3Kα and PI3Kγ, CRAF RAS-binding domain (RBD) and RALGDS RAS-associating domain (RA) compared with the low affinity Reference Compound Abd-2 FIG. 1a). […]

Structure (SMILES)	SPR Response Units [1]	Effect on BRET signal, KRAS G12D/effector interactions ([2]; formate salt)	Effect on BRET signal, KRAS G12D/effector interactions [2]
COc1cc(-c2cccc3c2OCCO3)ccc1Nc1cccc(CN(C)C)c1.O=CO [compound 72, [4-(2,3-Dihydro-benzo[1,4]dioxin-5-yl)-2-methoxy-phenyl]-(3-dimethylaminomethyl-phenyl)-amine formate salt]	56 Response Units	decreases KRAS G12D/effector domain interactions in a dose-dependent manner; also recorded: dose response reduction in BRET signal	–
COc1nc(-c2cccc3c2OCCO3)ccc1Nc1ccc(CN(C)C)cc1 [compound 56, [6-(2,3-Dihydro-benzo[1,4]dioxin-5-yl)-2-methoxy-pyridin-3-yl]-(4-dimethylaminomethyl-phenyl)-amine]	116 Response Units	–	reduces the BRET signal
